This is an account of results in BindingDB's records for doi:10.1124/jpet.103.049395 (Lcg Bioscience, 2003).

Where a SMILES comes first, the peptide text is derived from it. Bridges are numbered along the chain shown (N, C = ends). [ ]: non-standard residue; d: D form. Orn = NCCC[C@H](N)C(=O)O; Mpa = O=C(O)CCS

One experiment has as its target T1, Vasopressin V1b receptor (Homo sapiens, UniProt P47901).
T1 sequence (P47901 whole entry): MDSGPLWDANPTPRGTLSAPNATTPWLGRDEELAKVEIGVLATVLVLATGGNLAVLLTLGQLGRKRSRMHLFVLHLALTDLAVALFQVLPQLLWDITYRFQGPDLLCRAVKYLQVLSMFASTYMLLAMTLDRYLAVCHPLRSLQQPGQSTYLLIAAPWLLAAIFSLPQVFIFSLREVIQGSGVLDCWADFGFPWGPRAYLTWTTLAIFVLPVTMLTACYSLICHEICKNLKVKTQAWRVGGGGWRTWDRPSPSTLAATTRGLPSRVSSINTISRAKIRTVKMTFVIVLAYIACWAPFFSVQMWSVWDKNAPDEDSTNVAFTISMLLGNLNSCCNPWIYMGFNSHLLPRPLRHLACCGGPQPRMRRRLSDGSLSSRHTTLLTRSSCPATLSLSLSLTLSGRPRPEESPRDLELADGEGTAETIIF

In the next experiment the target is Vasopressin V2 receptor (Homo sapiens, UniProt P30518).
Experiment [1] concerns the target T2, Oxytocin receptor (Rattus norvegicus, UniProt P70536).
T2 sequence (P70536 whole entry): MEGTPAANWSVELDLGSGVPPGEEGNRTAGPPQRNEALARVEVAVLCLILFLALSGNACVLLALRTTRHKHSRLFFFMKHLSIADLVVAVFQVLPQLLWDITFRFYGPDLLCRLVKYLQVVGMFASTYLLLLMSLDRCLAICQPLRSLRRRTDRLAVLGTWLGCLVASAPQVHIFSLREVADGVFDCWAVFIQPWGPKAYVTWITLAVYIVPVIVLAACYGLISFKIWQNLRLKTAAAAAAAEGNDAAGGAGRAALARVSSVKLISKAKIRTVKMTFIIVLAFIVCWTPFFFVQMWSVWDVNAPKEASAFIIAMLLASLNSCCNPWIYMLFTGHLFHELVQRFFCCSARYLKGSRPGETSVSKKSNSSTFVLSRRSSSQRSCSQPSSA

Experiment [2] concerns the target T3, Oxytocin receptor (Homo sapiens, UniProt P30559).
T3 sequence (P30559 whole entry): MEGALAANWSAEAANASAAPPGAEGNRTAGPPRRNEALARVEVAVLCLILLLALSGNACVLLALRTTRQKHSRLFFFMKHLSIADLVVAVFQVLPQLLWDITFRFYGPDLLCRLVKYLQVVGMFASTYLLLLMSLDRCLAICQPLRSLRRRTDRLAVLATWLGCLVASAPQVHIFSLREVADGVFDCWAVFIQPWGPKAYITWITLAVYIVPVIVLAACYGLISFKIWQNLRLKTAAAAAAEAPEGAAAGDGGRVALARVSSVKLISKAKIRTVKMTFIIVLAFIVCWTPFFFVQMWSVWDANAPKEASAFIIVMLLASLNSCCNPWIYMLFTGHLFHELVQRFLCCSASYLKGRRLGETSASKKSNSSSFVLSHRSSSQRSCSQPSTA

The target in another experiment is Vasopressin V1a receptor (Homo sapiens, UniProt P37288).
Sequence of Vasopressin V1a receptor (P37288 whole entry): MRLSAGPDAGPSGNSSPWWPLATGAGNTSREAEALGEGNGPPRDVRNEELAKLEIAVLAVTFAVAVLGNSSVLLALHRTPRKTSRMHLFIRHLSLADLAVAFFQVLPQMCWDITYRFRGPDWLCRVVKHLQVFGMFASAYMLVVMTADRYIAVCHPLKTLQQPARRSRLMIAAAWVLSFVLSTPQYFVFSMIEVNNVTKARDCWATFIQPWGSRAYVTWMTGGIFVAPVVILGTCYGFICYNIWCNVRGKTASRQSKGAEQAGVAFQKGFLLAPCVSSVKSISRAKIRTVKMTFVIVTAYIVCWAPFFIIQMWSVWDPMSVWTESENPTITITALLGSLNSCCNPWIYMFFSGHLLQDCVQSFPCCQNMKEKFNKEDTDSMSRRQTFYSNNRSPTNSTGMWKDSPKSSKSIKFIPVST

Sequence of Vasopressin V2 receptor (P30518 whole entry): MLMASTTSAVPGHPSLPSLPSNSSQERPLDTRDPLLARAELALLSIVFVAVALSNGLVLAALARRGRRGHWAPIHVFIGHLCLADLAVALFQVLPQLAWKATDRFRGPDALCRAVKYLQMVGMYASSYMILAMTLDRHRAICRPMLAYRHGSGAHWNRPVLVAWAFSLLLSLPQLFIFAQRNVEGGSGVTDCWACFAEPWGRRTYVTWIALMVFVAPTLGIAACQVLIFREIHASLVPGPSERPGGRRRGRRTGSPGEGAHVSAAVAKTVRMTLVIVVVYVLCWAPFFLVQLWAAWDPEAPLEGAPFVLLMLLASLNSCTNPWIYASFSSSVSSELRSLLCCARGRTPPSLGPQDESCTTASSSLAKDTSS

In the case of `CO/N=C1/C[C@@H](C(=O)NC[C@@H](O)c2ccccc2)N(C(=O)c2ccc(-c3ccccc3C)cc2)C1` [(2S,4Z)-N-[(2S)-2-hydroxy-2-phenylethyl]-4-(methoxyimino)-1-[(2'-methyl[1,1'-biphenyl]-4-yl)carbonyl]-2-pyrrolidinecarboxamide], the inhibition constant (Ki) (commonly a dissociation constant, usually derived from enzyme kinetics or from competition with a known ligand) is more than 10000 nM at Vasopressin V1b receptor; more than 10000 nM at Vasopressin V2 receptor; 135 nM on Oxytocin receptor [1]; 17 nM at Oxytocin receptor [2]; 170 nM at Vasopressin V1a receptor.

Consider `CCOc1ccc(C[C@H]2NC(=O)CCSSC[C@@H](C(=O)N3CCC[C@H]3C(=O)N[C@@H](CCCN)C(=O)NCC(N)=O)NC(=O)[C@H](CC(N)=O)NC(=O)[C@H]([C@@H](C)O)NC(=O)[C@H]([C@@H](C)CC)NC2=O)cc1` [CAS_90779-69-4] ([Mpa][dY](Et)ITNCP[Orn]G-NH2; disulfide 1-6), for which the Ki on Vasopressin V1b receptor amounted to 657 nM; at Vasopressin V2 receptor, 954 nM; on Oxytocin receptor [2], 81 nM; on Vasopressin V1a receptor, 3.5 nM.
